IC50 data for 16 molecules are collected here from patent US12240844B2 (Voronoi, Inc., priority 2019, dated 2025).

Holding throughout (type): biochemical
For experiment [1], the target named is T1, human GST-DYRK1A (full length) (Homo sapiens, UniProt Q13627).
T1 construct: purified human GST-DYRK1A (full length, Thermo scientifics) enzyme; GST; purchased Thermo scientifics
The experiment in a line: GST-DYRK1A enzyme inhibition, ADP-Glo kinase assay. The conditions noted are these: read-out: DYRK1 IC50. The gist of the method:
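ADP-Glo luminescence quantified kinase activity after a 1 h, 25° C reaction of 10 ng full-length GST-tagged human DYRK1A, substrate and 10 uM ATP in Tris-HCl buffer pH 7.4 with MgCl2, BSA and DTT. Triplicate IC50 values (nM) calculated relative to untreated solvent control.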

Experiment [2] has as its target T2, human GST-CLK1 (129-end) (Homo sapiens, UniProt P49759).
T2 construct: purified human GST-CLK1 (129-end, Signalchem) enzyme; GST; purchased Signalchem
In words: GST-CLK1 enzyme inhibition, ADP-Glo kinase assay. The conditions noted are these: ATP 10 uM. The gist of the method: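 ADP formation was read by ADP-Glo luminescence after 1 h at 25° C with 3 ng human GST-CLK1 (129-end), substrate and 10 uM ATP in Tris pH 7.4 buffer containing MgCl2, BSA and DTT. Inhibition relative to untreated solvent control gave IC50 (nM), run in triplicate.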

In experiment [3] the target is LRRK2 (Homo sapiens, UniProt Q5S007). In words: LRRK2 enzyme inhibition, ADP-Glo kinase assay. Also on record: purchased Invitrogen PR8604B. Here is the method: In order to evaluate the inhibitory activity of the compounds according to the present invention on LRRK2, LRRK2 (G2019S), DYRK1, CLK1 and TTK kinases, the following experiment was performed.
Example compounds were reacted with the purified human LRRK2 (Invitrogen #PR8604B) enzyme to evaluate the enzyme inhibitory ability as follows. The reaction buffer was used as the composition of 40 mM Tris-HCl pH7.4, 20 mM MgCl2, 0.5 mg/ml BSA and 50 μM DTT, and the reaction of all test materials was performed on the reaction buffer. The compound was diluted with 10 mM DMSO stock in 12 steps by a serial dilution method, and the enzyme activity was measured at the final compound concentrations of 50, 10, 2, 0.4, 0.08, 0.016, 0.0032, 0.00064, 0.000128, 0.0000256, 0.00000512 and 0.000001024 μM. In the test, the human LRRK2 (25 ng) enzyme was reacted with the purified ATP (10 μM) and an enzyme substrate ([…]) at 25° C. for 2 hours, and then the enzyme activity was identified using the in vitro ADP-Glo™ kinase assay (promega). The enzyme activity reaction liquid, an ADP-Glo reaction liquid and an enzyme potency detection solution were reacted in a ratio of 2:2:1, and the degree of inhibition of enzyme activity was measured by Luminescence. The degree of inhibition of enzyme activity according to the treatment concentrations of the respective compounds was calculated based on the fluorescence of the enzyme activity of a solvent control group that was not treated with the compound, where the concentration of each compound to inhibit enzyme activity inhibition by 50% was determined as an IC50 (nM) value and obtained using Prism (Version 5.01, GraphPad) software.
In the table below, the following designations were used for the evaluation of enzyme inhibitory ability.

In experiment [4] the target is LRRK2 (G2019S) (Homo sapiens, UniProt Q5S007, G2019S). In words: LRRK2 G2019S enzyme inhibition, ADP-Glo kinase assay. Also on record: purchased SignalChem L10-12GG. An outline of the steps:
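Activity read as ADP-Glo luminescence, normalized to untreated solvent control, with IC50 (nM) fitted over 12 final compound levels (top 50 μM). Reaction: 2 h, 25° C, human LRRK2 G2019S 16 ng, ATP 25 μM, substrate 0.2 μg, in Tris-HCl pH 7.4 with MgCl2, BSA and DTT.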

Chain of LRRK2 (Q5S007 970-2527 limits assumed): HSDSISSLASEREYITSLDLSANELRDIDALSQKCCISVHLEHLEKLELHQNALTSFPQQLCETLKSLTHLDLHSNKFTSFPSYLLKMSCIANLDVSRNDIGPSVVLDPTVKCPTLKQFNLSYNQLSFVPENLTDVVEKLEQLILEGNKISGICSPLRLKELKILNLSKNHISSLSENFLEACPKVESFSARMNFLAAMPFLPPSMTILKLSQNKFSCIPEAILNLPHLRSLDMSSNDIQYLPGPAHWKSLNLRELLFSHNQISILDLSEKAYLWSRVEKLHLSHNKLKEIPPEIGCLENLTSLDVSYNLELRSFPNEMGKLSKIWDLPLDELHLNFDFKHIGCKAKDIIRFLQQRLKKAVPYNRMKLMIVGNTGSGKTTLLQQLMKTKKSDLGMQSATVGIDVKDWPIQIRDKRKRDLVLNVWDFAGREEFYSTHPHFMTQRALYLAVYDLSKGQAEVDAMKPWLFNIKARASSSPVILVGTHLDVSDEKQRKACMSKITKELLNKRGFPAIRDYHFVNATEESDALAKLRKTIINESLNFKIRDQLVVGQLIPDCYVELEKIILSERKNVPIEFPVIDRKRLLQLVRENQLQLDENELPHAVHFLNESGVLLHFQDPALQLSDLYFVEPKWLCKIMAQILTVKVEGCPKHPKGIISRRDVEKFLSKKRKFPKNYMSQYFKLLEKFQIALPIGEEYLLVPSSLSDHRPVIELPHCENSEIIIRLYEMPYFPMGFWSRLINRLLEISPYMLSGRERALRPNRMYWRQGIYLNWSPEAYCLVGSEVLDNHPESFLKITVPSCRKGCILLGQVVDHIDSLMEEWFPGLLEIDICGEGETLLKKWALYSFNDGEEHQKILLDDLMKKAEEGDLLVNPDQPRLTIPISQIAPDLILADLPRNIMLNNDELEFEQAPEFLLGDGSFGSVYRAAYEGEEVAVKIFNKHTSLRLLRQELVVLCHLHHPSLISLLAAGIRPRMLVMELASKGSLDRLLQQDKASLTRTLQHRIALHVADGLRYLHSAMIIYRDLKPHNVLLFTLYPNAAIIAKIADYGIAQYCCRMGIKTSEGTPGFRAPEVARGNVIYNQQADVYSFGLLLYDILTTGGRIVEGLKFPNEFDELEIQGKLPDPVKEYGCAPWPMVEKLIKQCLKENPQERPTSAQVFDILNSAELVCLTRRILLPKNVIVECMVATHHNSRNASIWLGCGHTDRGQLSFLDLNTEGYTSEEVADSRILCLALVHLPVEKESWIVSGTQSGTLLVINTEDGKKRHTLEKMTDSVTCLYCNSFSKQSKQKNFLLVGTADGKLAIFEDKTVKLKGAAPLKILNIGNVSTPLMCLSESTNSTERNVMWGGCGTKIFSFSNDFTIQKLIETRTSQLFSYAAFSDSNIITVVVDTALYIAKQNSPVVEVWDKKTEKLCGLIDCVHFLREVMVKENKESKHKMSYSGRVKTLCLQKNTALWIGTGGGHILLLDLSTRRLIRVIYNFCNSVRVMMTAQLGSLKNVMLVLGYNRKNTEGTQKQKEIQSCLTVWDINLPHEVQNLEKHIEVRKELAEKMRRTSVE
Chain of LRRK2 (G2019S) (Q5S007 970-2527 G2019S limits assumed): as the sequence (Q5S007 970-2527 limits assumed) above, with G1050S counted along it
T2 sequence (P49759 129-484 limits assumed): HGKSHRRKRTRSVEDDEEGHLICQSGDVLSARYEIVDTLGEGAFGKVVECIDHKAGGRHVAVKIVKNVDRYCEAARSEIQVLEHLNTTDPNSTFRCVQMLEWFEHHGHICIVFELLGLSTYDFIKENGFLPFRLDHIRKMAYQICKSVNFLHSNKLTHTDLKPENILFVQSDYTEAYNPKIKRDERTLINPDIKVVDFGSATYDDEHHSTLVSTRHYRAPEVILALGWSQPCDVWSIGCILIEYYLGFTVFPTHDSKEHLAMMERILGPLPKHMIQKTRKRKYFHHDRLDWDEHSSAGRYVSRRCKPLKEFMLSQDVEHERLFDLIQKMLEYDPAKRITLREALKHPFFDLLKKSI

Take `CCOc1cc(Nc2ccc(C(=O)N3CCOCC3)c3c2OCCO3)nc2[nH]cc(C(F)(F)F)c12` [Example 231, (8-((4-ethoxy-3-(trifluoromethyl)-1H-pyrrolo[2,3-b]pyridin-6-yl)amino)-2,3-dihydrobenzo[b] [1,4]dioxin-5-yl)(morpholino) methanone]: the IC50 in experiment [1] was 301 to 1000 nM; in experiment [2], 301 to 1000 nM; in experiment [3], less than 100 nM.
On to `CCCNc1cc(Nc2ccc(C(=O)N3CCOCC3)c3c2OCCO3)nc2[nH]cc(C(F)(F)F)c12` [Example 174, morpholino(8-((4-(propylamino)-3-(trifluoromethyl)-1H-pyrrolo[2,3-b]pyridin-6-yl)amino)-2,3-dihydrobenzo[b] [1,4]dioxin-5-yl)methanone], for which the concentration for half-maximal inhibition (IC50) in experiment [1] was in the range of 301 to 1000 nM; in experiment [2], 301 to 1000 nM; in experiment [3], 101 to 300 nM.
As to `COC[C@@H](C)Nc1cc(Nc2ccc(C(=O)N3CCOCC3)c3c2OCCO3)nc2[nH]cc(C(F)(F)F)c12` [Example 159, (R)-(8-((4-((1-methoxypropan-2-yl)amino)-3-(trifluoromethyl)-1H-pyrrolo[2,3-b]pyridin-6-yl)amino)-2,3-dihydrobenzo [b] [1,4]dioxin-5-yl)(morpholino) methanone], the IC50 in experiment [1] is 101 to 300 nM; in experiment [2], less than 100 nM; in experiment [3] it was less than 100 nM.
`CNc1cc(Nc2ccc(S(C)(=N)=O)cc2OC)nc2[nH]cc(C(F)(F)F)c12` (stereo not drawn) [Example 103, N^6-(2-methoxy-4-(s-methylsulfonylimidoyl)phenyl)-N^4-methyl-3-(trifluoromethyl)-1H-pyrrolo[2,3-b]pyridine-4,6-diamine]: the half-inhibitory concentration (IC50) fell in the range of 301 to 1000 nM in experiment [1], 301 to 1000 nM in experiment [2] and 101 to 300 nM in experiment [3].
As for `CCNc1cc(Nc2ccc(P3(=O)CCN(CC)CC3)cc2OC)nc2[nH]cc(C(F)(F)F)c12` [Example 210, 1-ethyl-4-(4-((4-(ethylamino)-3-(trifluoromethyl)-1H-pyrrolo[2,3-b]pyridin-6-yl)amino)-3-methoxyphenyl)-1,4-azaphosphinane 4-oxide], the IC50 in experiment [1], in experiment [2] and in experiment [3] was less than 100 nM throughout.
Take `CN(C)CCNc1cc(Nc2ccc(C(=O)N3CCOCC3)c3c2OCCO3)nc2[nH]cc(C(F)(F)F)c12` [Example 171, (8-((4-((2-(dimethylamino)ethyl)amino)-3-(trifluoromethyl)-1H-pyrrolo[2,3-b]pyridin-6-yl)amino)-2,3-dihydrobenzo [b] [1,4]dioxin-5-yl)(morpholino) methanone]: the IC50 in experiment [1] was 301 to 1000 nM; in experiment [2], 301 to 1000 nM; in experiment [3], less than 100 nM.
`COc1cc(S(C)(=O)=O)ccc1Nc1cc(NC2CCC2)c2c(C(F)(F)F)c[nH]c2n1` [Example 204, N^4-cyclobutyl-N^6-(2-methoxy-4-(methylsulfonyl)phenyl)-3-(trifluoromethyl)-1H-pyrrolo[2,3-b]pyridine-4,6-diamine]: the IC50 in experiment [1], in experiment [2] and in experiment [3] was 301 to 1000 nM throughout.
`CNc1cc(Nc2ccc(P3(=O)CCN(C4COC4)CC3)cc2OC)nc2[nH]cc(C#N)c12` [Example 142, 6-((2-methoxy-4-(1-(oxetan-3-yl)-4-oxido-1,4-azaphosphinan-4-yl)phenyl)amino)-4-(methylamino)-1H-pyrrolo[2,3-b]pyridine-3-carbonitrile]: the figures for the IC50 in experiment [1], in experiment [2] and in experiment [3] were 101 to 300 nM, 301 to 1000 nM and less than 100 nM, respectively.
For `CN(C)CCNc1cc(Nc2ccc(C(=O)N3CCC(N4CCOCC4)CC3)c3c2OCCO3)nc2[nH]cc(C(F)(F)F)c12` [Example 172, (8-((4-((2-(dimethylamino)ethyl)amino)-3-(trifluoromethyl)-1H-pyrrolo[2,3-b]pyridin-6-yl)amino)-2,3-dihydrobenzo[b] [1,4]dioxin-5-yl)(4-morpholinopiperidin-1-yl)methanone], in that order: 301 to 1000 nM, 101 to 300 nM and less than 100 nM.
As to `COc1cc(P2(=O)CCN(C3CC3)CC2)ccc1Nc1cc(C2CC2)c2c(C(F)(F)F)c[nH]c2n1` [Example 218, 1-cyclopropyl-4-(4-((4-cyclopropyl-3-(trifluoromethyl)-1H-pyrrolo[2,3-b]pyridin-6-yl)amino)-3-methoxyphenyl)-1,4-azaphosphinane 4-oxide], the figures for the IC50 in experiment [1], in experiment [2] and in experiment [3] were 301 to 1000 nM, 301 to 1000 nM and less than 100 nM, respectively.
Consider `COc1cc(S(=O)(=O)N2CCC(N3CCOCC3)CC2)ccc1Nc1cc(NCCS(C)(=O)=O)c2cc[nH]c2n1` [Example 24, N^6-(2-methoxy-4-((4-morpholinopiperidin-1-yl)sulfonyl)phenyl)-N^4-(2-(methylsulfonyl)ethyl)-1H-pyrrolo[2,3-b]pyridine-4,6-diamine], for which the IC50 is less than 100 nM in experiment [4], 301 to 1000 nM in experiment [1] and 301 to 1000 nM in experiment [2].
As to `COc1cc(S(=O)(=O)N2CCC(N3CCOCC3)CC2)ccc1Nc1cc(NC2CCCC2)c2c(C#N)c[nH]c2n1` [Example 136, 4-(cyclopentylamino)-6-((2-methoxy-4-((4-morpholinopiperidin-1-yl)sulfonyl)phenyl)amino)-1H-pyrrolo[2,3-b]pyridine-3-carbonitrile], the IC50 in experiment [4] is less than 100 nM; in experiment [1], 301 to 1000 nM; in experiment [2], 301 to 1000 nM.
As for `CCNc1cc(Nc2ccc(C(=O)N3CCO[C@@H](C)C3)c3c2OCC3)nc2[nH]cc(C(F)(F)F)c12` [Example 259, (S)-(7-((4-(ethylamino)-3-(trifluoromethyl)-1H-pyrrolo[2,3-b]pyridin-6-yl)amino)-2,3-dihydrobenzofuran-4-yl)(2-methylmorpholino) methanone], the IC50 in experiment [4], in experiment [1] and in experiment [2] was less than 100 nM throughout.
Turning to `COc1cc(S(=O)(=O)N2CCOCC2)ccc1Nc1cc(NCCS(C)(=O)=O)c2c(Cl)c[nH]c2n1` [Example 72, 3-chloro-N^6-(2-methoxy-4-(morpholinosulfonyl)phenyl)-N^4-(2-(methylsulfonyl)ethyl)-1H-pyrrolo[2,3-b]pyridine-4,6-diamine], the IC50 in experiment [4], in experiment [1] and in experiment [2] was 301 to 1000 nM each time.
Turning to `C=CCN1CCN(C(=O)c2ccc(Nc3cc(NCC)c4c(C(F)(F)F)c[nH]c4n3)c3c2CCO3)CC1` [Example 252, (4-allylpiperazin-1-yl)(7-((4-(ethylamino)-3-(trifluoromethyl)-1H-pyrrolo[2,3-b]pyridin-6-yl)amino)-2,3-dihydrobenzofuran-4-yl)methanone], the IC50 in experiment [4], in experiment [1] and in experiment [2] was less than 100 nM in each case.
With `CS(=O)(=O)CCNc1cc(Nc2ccc(C(=O)N3CCOCC3)c3c2OCCO3)nc2[nH]cc(Cl)c12` [Example 63, (8-((3-chloro-4-((2-(methylsulfonyl)ethyl)amino)-1H-pyrrolo[2,3-b]pyridin-6-yl)amino)-2,3-dihydrobenzo[b] [1,4]dioxin-5-yl)(morpholino) methanone], the IC50 is less than 100 nM in experiment [4], 301 to 1000 nM in experiment [1] and 301 to 1000 nM in experiment [2].
